The structures appear in SMILES notation. Like-named read-outs stand apart in the source and are kept apart here.

Common to all, as to assay type: in vivo
In one assay the test system is Pyricularia. The note with it: rice.
A further assay has as its system Pyricularia oryzae. The note with it: rice, protective, evaluation 4 days after inoculation.
Assay [1] relates to Erysiphe graminis f.sp. hordei. In words: Erysiphe test (barley)/protective. Particulars: protective, application rate 50 g/ha, evaluation 7 days after inoculation. As for the experimental part:
Erysiphe test (barley)/protective
Solvent: 50 parts by weight of dimethylformamide
Emulsifier: 1 part by weight of alkylaryl polyglycol ether
To produce a suitable preparation of active compound, 1 part by weight of active compound or a combination of active compound is mixed with the stated amounts of solvent and emulsifier, and the concentrate is diluted with water to the desired concentration, or a commercial formulation of active compound or active compound combination is diluted with water to the desired concentration.
To test for protective activity, young plants are sprayed with the preparation of active compound at the stated application rate.
1 day after the treatment, the plants are dusted with spores of Erysiphe graminis f.sp. hordei.
The plants are placed in a greenhouse at a temperature of about 20° C. and a relative atmospheric humidity of about 80% to promote the development of mildew pustules.
Evaluation is carried out 7 days after the inoculation. 0% means an efficacy which corresponds to that of the control, whereas an efficacy of 100% means that no infection is observed.

Regarding `N#Cc1ccccc1NC(=O)c1snc(Cl)c1Cl` [(I), 2′-cyano-3,4-dichloroisothiazole-5-carboxanilide], the Efficacy in % worked out at 12.6% in the assay with Pyricularia (10 g/10 acres, b: inoculation two weeks after treatment) and 75% in the assay on Pyricularia (20 g/10 acres, b: inoculation two weeks after treatment).

Regarding `CCC1(C(=O)NC(C)c2ccc(Cl)cc2)C(C)C1(Cl)Cl` (stereo not shown) [(II), N-[1-(4-chlorophenyl)ethyl]-2,2-dichloro-1-ethyl-3-methylcyclopropane-carboxamide], the Efficacy in % in the assay on Pyricularia oryzae (application rate 50 g/ha) worked out at 29%; with Pyricularia (100 g/10 acres, a: inoculation one week after treatment), 0%.

On to `CC(C)(C)C(O)(CCc1ccc(Cl)cc1)Cn1cncn1` (stereo not shown) [(IV-b)], for which, in the assay with Pyricularia oryzae (application rate 100 g/ha), the Efficacy in % was 0%.

`OC(Cc1ccccc1Cl)(Cn1nc[nH]c1=S)C1(Cl)CC1` (stereo not shown) [(IV-c), Prothioconazole] showed an Efficacy in % in the assay with Pyricularia oryzae (application rate 100 g/ha) of 29%.

`CC(NC(=O)C(C#N)C(C)(C)C)c1ccc(Cl)cc1Cl` (stereo not shown) [(IX), diclocymet]: the Efficacy in % worked out at 37.5% with Pyricularia (10 g/10 acres, a: inoculation one week after treatment); 83.2% in the assay with Pyricularia (20 g/10 acres, a: inoculation one week after treatment); 27.8% in the assay on Pyricularia (100 g/10 acres, b: inoculation two weeks after treatment).

For `O=C(Nc1ccccc1)N(Cc1ccc(Cl)cc1)C1CCCC1` [(V)], the Efficacy in % in assay [1] was 0%.

The values above are taken from US8962578B2 (priority 2003, dated 2015).
